Experimental data published in the NIST ThermoML archive (doi:10.1016/j.jct.2013.09.010).
Where “and” joins values, the source holds several entries; their conditions need not be identical. Equal values may be shown once. Numbers after ± are expanded uncertainties.

How the values were obtained:
[1] = Liquid, Vibrating tube method
[2] = molar heat capacity at constant pressure; conditions: 101 kPa, Liquid, Small sample (50 mg) DSC

Compound: CCCC(=O)[O-].C[NH2+]CCO [N-methyl-2-hydroxyethylammonium butanoate]
- mass density ([1]; 298.15 K, 100 kPa): 1035.29 ± 2 kg/m3
- mass density ([1]; 298.15 K, 5000 kPa): 1037.49 ± 2 kg/m3
- mass density ([1]; 298.15 K, 10000 kPa): 1039.66 ± 2 kg/m3
- mass density ([1]; 298.15 K, 15000 kPa): 1041.88 ± 2 kg/m3
- mass density ([1]; 298.15 K, 20000 kPa): 1043.97 ± 2 kg/m3
- mass density ([1]; 298.15 K, 25000 kPa): 1046.02 ± 2 kg/m3
- mass density ([1]; 308.15 K, 100 kPa): 1028.57 ± 2 kg/m3
- mass density ([1]; 308.15 K, 5000 kPa): 1030.87 ± 2 kg/m3
- mass density ([1]; 308.15 K, 10000 kPa): 1033.14 ± 2 kg/m3
- mass density ([1]; 308.15 K, 15000 kPa): 1035.43 ± 2 kg/m3
- mass density ([1]; 308.15 K, 20000 kPa): 1037.61 ± 2 kg/m3
- mass density ([1]; 308.15 K, 25000 kPa): 1039.73 ± 2 kg/m3
- mass density ([1]; 318.15 K, 100 kPa): 1021.88 ± 2 kg/m3
- mass density ([1]; 318.15 K, 5000 kPa): 1024.28 ± 2 kg/m3
- mass density ([1]; 318.15 K, 10000 kPa): 1026.66 ± 2 kg/m3
- mass density ([1]; 318.15 K, 15000 kPa): 1029.02 ± 2 kg/m3
- mass density ([1]; 318.15 K, 20000 kPa): 1031.28 ± 2 kg/m3
- mass density ([1]; 318.15 K, 25000 kPa): 1033.49 ± 2 kg/m3
- mass density ([1]; 328.15 K, 100 kPa): 1015.21 ± 2 kg/m3
- mass density ([1]; 328.15 K, 5000 kPa): 1017.71 ± 2 kg/m3
- mass density ([1]; 328.15 K, 10000 kPa): 1020.2 ± 2 kg/m3
- mass density ([1]; 328.15 K, 15000 kPa): 1022.64 ± 2 kg/m3
- mass density ([1]; 328.15 K, 20000 kPa): 1024.99 ± 2 kg/m3
- mass density ([1]; 328.15 K, 25000 kPa): 1027.31 ± 2 kg/m3
- mass density ([1]; 338.15 K, 100 kPa): 1008.57 ± 2 kg/m3
- mass density ([1]; 338.15 K, 5000 kPa): 1011.17 ± 2 kg/m3
- mass density ([1]; 338.15 K, 10000 kPa): 1013.77 ± 2 kg/m3
- mass density ([1]; 338.15 K, 15000 kPa): 1016.3 ± 2 kg/m3
- mass density ([1]; 338.15 K, 20000 kPa): 1018.73 ± 2 kg/m3
- mass density ([1]; 338.15 K, 25000 kPa): 1021.17 ± 2 kg/m3
- mass density ([1]; 348.15 K, 100 kPa): 1001.95 ± 2 kg/m3
- mass density ([1]; 348.15 K, 5000 kPa): 1004.66 ± 2 kg/m3
- mass density ([1]; 348.15 K, 10000 kPa): 1007.36 ± 2 kg/m3
- mass density ([1]; 348.15 K, 15000 kPa): 1010 ± 2 kg/m3
- mass density ([1]; 348.15 K, 20000 kPa): 1012.5 ± 2 kg/m3
- mass density ([1]; 348.15 K, 25000 kPa): 1015.08 ± 2 kg/m3
- mass density ([1]; 358.15 K, 100 kPa): 995.35 ± 2 kg/m3
- mass density ([1]; 358.15 K, 5000 kPa): 998.16 ± 2 kg/m3
- mass density ([1]; 358.15 K, 10000 kPa): 1000.98 ± 2 kg/m3
- mass density ([1]; 358.15 K, 15000 kPa): 1003.73 ± 2 kg/m3
- mass density ([1]; 358.15 K, 20000 kPa): 1006.31 ± 2 kg/m3
- mass density ([1]; 358.15 K, 25000 kPa): 1009.04 ± 2 kg/m3
- molar heat capacity at constant pressure ([2]; 286.15 K): 357.3 ± 15 J/K/mol
- molar heat capacity at constant pressure ([2]; 287.15 K): 358.4 ± 15 J/K/mol
- molar heat capacity at constant pressure ([2]; 288.15 K): 357 ± 15 J/K/mol
- molar heat capacity at constant pressure ([2]; 290.15 K): 358.9 ± 15 J/K/mol
- molar heat capacity at constant pressure ([2]; 291.15 K): 360.7 ± 15 J/K/mol
- molar heat capacity at constant pressure ([2]; 292.15 K): 356.8 ± 15 J/K/mol
- molar heat capacity at constant pressure ([2]; 293.15 K): 358.6 ± 15 J/K/mol
- molar heat capacity at constant pressure ([2]; 294.15 K): 361 ± 15 J/K/mol and 360.1 ± 15 J/K/mol
- molar heat capacity at constant pressure ([2]; 295.15 K): 358.1 ± 15 J/K/mol and 360.9 ± 15 J/K/mol
- molar heat capacity at constant pressure ([2]; 296.15 K): 361.7 ± 15 J/K/mol and 357.1 ± 15 J/K/mol
- molar heat capacity at constant pressure ([2]; 297.15 K): 362.7 ± 15 J/K/mol and 358.9 ± 15 J/K/mol
- molar heat capacity at constant pressure ([2]; 298.15 K): 363.2 ± 15 J/K/mol and 359.6 ± 15 J/K/mol
- molar heat capacity at constant pressure ([2]; 299.15 K): 364 ± 15 J/K/mol and 360.7 ± 15 J/K/mol
- molar heat capacity at constant pressure ([2]; 300.15 K): 364.6 ± 16 J/K/mol and 361.2 ± 15 J/K/mol
- molar heat capacity at constant pressure ([2]; 301.15 K): 361.7 ± 15 J/K/mol and 365.3 ± 16 J/K/mol
- molar heat capacity at constant pressure ([2]; 302.15 K): 362.2 ± 15 J/K/mol and 365.8 ± 16 J/K/mol
- molar heat capacity at constant pressure ([2]; 303.15 K): 362.3 ± 15 J/K/mol and 366.4 ± 16 J/K/mol
- molar heat capacity at constant pressure ([2]; 304.15 K): 362.8 ± 15 J/K/mol and 367.1 ± 16 J/K/mol
- molar heat capacity at constant pressure ([2]; 305.15 K): 363.3 ± 15 J/K/mol and 367.6 ± 16 J/K/mol
- molar heat capacity at constant pressure ([2]; 306.15 K): 363.8 ± 15 J/K/mol and 368 ± 16 J/K/mol
- molar heat capacity at constant pressure ([2]; 307.15 K): 364.3 ± 16 J/K/mol and 368.5 ± 16 J/K/mol
- molar heat capacity at constant pressure ([2]; 308.15 K): 364.8 ± 16 J/K/mol and 368.9 ± 16 J/K/mol
- molar heat capacity at constant pressure ([2]; 309.15 K): 364.9 ± 16 J/K/mol and 369.4 ± 16 J/K/mol
- molar heat capacity at constant pressure ([2]; 310.15 K): 365.4 ± 16 J/K/mol and 369.7 ± 16 J/K/mol
- molar heat capacity at constant pressure ([2]; 311.15 K): 365.8 ± 16 J/K/mol and 370.3 ± 16 J/K/mol
- molar heat capacity at constant pressure ([2]; 312.15 K): 366.4 ± 16 J/K/mol and 370.8 ± 16 J/K/mol
- molar heat capacity at constant pressure ([2]; 313.15 K): 367.2 ± 16 J/K/mol and 371.5 ± 16 J/K/mol
- molar heat capacity at constant pressure ([2]; 314.15 K): 368 ± 16 J/K/mol and 372.1 ± 16 J/K/mol
- molar heat capacity at constant pressure ([2]; 315.15 K): 368.7 ± 16 J/K/mol and 372.8 ± 16 J/K/mol
- molar heat capacity at constant pressure ([2]; 316.15 K): 369.2 ± 16 J/K/mol and 373.6 ± 16 J/K/mol
- molar heat capacity at constant pressure ([2]; 317.15 K): 369.5 ± 16 J/K/mol and 374.3 ± 16 J/K/mol
- molar heat capacity at constant pressure ([2]; 318.15 K): 369.7 ± 16 J/K/mol and 374.7 ± 16 J/K/mol
- molar heat capacity at constant pressure ([2]; 319.15 K): 370 ± 16 J/K/mol and 375.4 ± 16 J/K/mol
- molar heat capacity at constant pressure ([2]; 320.15 K): 370.2 ± 16 J/K/mol and 375.7 ± 16 J/K/mol
- molar heat capacity at constant pressure ([2]; 321.15 K): 370.7 ± 16 J/K/mol and 376.2 ± 16 J/K/mol
- molar heat capacity at constant pressure ([2]; 322.15 K): 371.2 ± 16 J/K/mol and 376.9 ± 16 J/K/mol
- molar heat capacity at constant pressure ([2]; 323.15 K): 371.5 ± 16 J/K/mol and 377.5 ± 16 J/K/mol
- molar heat capacity at constant pressure ([2]; 324.15 K): 372.1 ± 16 J/K/mol and 378.2 ± 16 J/K/mol
- molar heat capacity at constant pressure ([2]; 325.15 K): 372.8 ± 16 J/K/mol and 378.7 ± 16 J/K/mol
- molar heat capacity at constant pressure ([2]; 326.15 K): 373.8 ± 16 J/K/mol and 379.3 ± 16 J/K/mol
- molar heat capacity at constant pressure ([2]; 327.15 K): 374.7 ± 16 J/K/mol and 380.1 ± 16 J/K/mol
- molar heat capacity at constant pressure ([2]; 328.15 K): 375.4 ± 16 J/K/mol and 380.6 ± 16 J/K/mol
- molar heat capacity at constant pressure ([2]; 329.15 K): 375.7 ± 16 J/K/mol and 381.3 ± 16 J/K/mol
- molar heat capacity at constant pressure ([2]; 330.15 K): 375.6 ± 16 J/K/mol and 381.8 ± 16 J/K/mol
- molar heat capacity at constant pressure ([2]; 331.15 K): 375.4 ± 16 J/K/mol and 382.1 ± 16 J/K/mol
- molar heat capacity at constant pressure ([2]; 332.15 K): 375.2 ± 16 J/K/mol and 382.9 ± 16 J/K/mol
- molar heat capacity at constant pressure ([2]; 333.15 K): 374.9 ± 16 J/K/mol and 383.1 ± 16 J/K/mol
- molar heat capacity at constant pressure ([2]; 334.15 K): 375.2 ± 16 J/K/mol and 383.9 ± 16 J/K/mol
- molar heat capacity at constant pressure ([2]; 335.15 K): 375.7 ± 16 J/K/mol and 384.7 ± 16 J/K/mol
- molar heat capacity at constant pressure ([2]; 336.15 K): 377.2 ± 16 J/K/mol
